# Laboratory results taken from article PMC8689681 (The Journal of Experimental Medicine, 2021).
# Molecular target: ADAM17 (Homo sapiens, UniProt P78536)
# Experiment: fluorogenic peptide
# Assay type: biochemical
# Sequence of ADAM17 (P78536 215-474 limits assumed): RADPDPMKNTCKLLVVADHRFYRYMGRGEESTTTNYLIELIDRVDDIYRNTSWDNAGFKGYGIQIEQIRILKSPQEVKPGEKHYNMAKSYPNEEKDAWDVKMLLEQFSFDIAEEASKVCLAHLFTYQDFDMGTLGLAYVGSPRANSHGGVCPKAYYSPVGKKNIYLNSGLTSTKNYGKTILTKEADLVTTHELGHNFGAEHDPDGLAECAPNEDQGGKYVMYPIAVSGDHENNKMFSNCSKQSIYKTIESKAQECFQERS
smiles,measurement,value
CC(C)C[C@H](CC(=O)NO)C(=O)N[C@@H](Cc1ccc2ccccc2c1)C(=O)N[C@@H](C)C(=O)NCCN [TAPI-1],IC50,128 ± 0.9 nM
